The source of these data is patent US7018631B1, “Compositions and methods for sensitizing and inhibiting growth of human tumor cells” (St. Jude Children's Research Hospital, priority 1998, dated 2006).

Data set [1] addresses T1, rabbit liver CE (Oryctolagus cuniculus, UniProt P12337).
T1 sequence (P12337 19-565): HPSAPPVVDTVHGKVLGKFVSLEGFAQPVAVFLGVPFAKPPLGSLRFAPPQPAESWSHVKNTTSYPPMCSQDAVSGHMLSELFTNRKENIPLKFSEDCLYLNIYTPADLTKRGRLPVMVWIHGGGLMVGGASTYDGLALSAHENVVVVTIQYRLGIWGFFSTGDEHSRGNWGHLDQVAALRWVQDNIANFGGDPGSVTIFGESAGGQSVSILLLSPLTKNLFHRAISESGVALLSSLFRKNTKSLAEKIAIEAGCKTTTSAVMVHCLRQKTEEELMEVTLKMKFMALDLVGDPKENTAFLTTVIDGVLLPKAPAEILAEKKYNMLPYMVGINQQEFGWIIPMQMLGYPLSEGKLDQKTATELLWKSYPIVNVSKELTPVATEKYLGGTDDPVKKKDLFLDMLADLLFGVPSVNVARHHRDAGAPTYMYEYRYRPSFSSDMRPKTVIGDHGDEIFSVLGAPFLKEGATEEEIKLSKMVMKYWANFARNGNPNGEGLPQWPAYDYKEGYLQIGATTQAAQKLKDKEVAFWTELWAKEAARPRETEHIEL
Nature of the data set: In vitro conversion of APC to SN-38 by rabbit liver CE. The conditions noted are these: FIG. 6. Type of data set: biochemical. The source says:
FIG. 6 is a linegraph showing the conversion of APC, depicted on the X-axis at nanomolar concentrations, to SN-38, depicted on the Y-axis at nanomolar concentrations, in vitro by the activity of rabbit liver CE given at doses of 0 (filled cross), 10 (filled hexagon), 25 (filled triangle), 50 (filled circle) or 100 (filled square) units. Data presented represent the mean response at each dose level.
(§1) No known human enzyme activates APC. […] Thus, the combination of APC and sensitization of selected tumor cells with rabbit liver CE as described above can be used to produce a tumor-specific cell death while greatly minimizing the toxic side effects associated with administration of chemotherapy.

Data set [2] has as its system U-373 glioma cells. Nature of the data set: Sensitization of U-373 glioma cells expressing CE to APC. The conditions noted are these: 2 h exposure. Format: cell-based, human. On the procedure:
FIG. 7 is a linegraph showing a comparison of the sensitization, depicted as % survival on the Y-axis, of U-373 glioma cells exposed to APC, depicted as log[APC] at concentrations from 10^−8 to 10^−5 M on the X-axis, from in situ expression of rabbit liver CE (filled squares) and human alveolar macrophage CE (filled circles). Cells were exposed for 2 hours to APC.
as §1

Data set [3] deals with Rh30 cells. Nature of the data set: Growth inhibition of Rh30 cells by CPT-11 pre-incubated with rabbit liver CE. Format: cell-based, human. The conditions noted are these: 1 to 5 units of CE inactivated by heating; 1 h exposure. From the text:
Another aspect of the present invention relates to the ability of compositions of the present invention comprising a polynucleotide encoding a carboxylesterase and a disease-specific responsive promoter of selected tumor cells to sensitize the tumor cells to a chemotherapeutic prodrug. The ability of the combination of a rabbit CE of the present invention and CPT-11 to sensitize human tumor cells to CPT-11 was examined. Experiments were first performed to confirm that the metabolite produced by the activity of a CE of the present invention is biologically active in vitro. Rh30 cells were then exposed to the products of each reaction for one hour and the percentage of growth inhibition was determined.
Each reaction mixture was then filter-sterilized and Rh30 cells were exposed to drug for one hour, at which time the medium was replaced with drug-free medium containing serum. […] Cells were allowed to grow for 3 cell doubling times and cell numbers were determined.

Data set [4] relates to human NB-1691 xenografts. Nature of the data set: NB-1691 xenograft model for MRD. Type of data set: in vivo, mice. To be noted: 10 mg/kg CPT-11 daily for 5 days on two consecutive weeks. The source says:
However, within 4–6 weeks, tumors are palpable in the exact position where the original xenograft was implanted. Since these tumors arise from cells that survived the initial cycle of chemotherapy, this model therefore mimics results seen in patients following surgical resection of the primary tumor and subsequent regrowth at the same site.

Data set [5] deals with CEs purified from human tissues. To be noted: human CE; cited from earlier work.
In data set [6] the test system is Rh30 rhabdomyosarcoma cells. Nature of the data set: Growth inhibition by CPT-11 of Rh30 cells stably transfected with pIRES or rabbit CE cDNA. Type of data set: cell-based. To be noted: Homo sapiens, Rh30, 2 h, 2 h exposure. On the procedure: The in vitro activity of rabbit liver CE was examined in tumor cell lines. […] Optimized conditions for electroporation were achieved using 180 V and 960 uF. […] Cells were grown for a minimum of 10 days before use in growth inhibition experiments. […] Drug was added to tissue culture medium of each of the stably transfected cell lines for two hours, after which time the medium was replaced with drug-free medium. Cells were then allowed to grow for 3 cell doublings as before.

Data set [7] relates to U373 glioblastoma xenografts. Nature of the data set: U373 glioblastoma xenografts in SCID mice treated with CPT-11. The conditions noted are these: 7.5 mg/kg/day, three cycles. Type of data set: in vivo. The source says: The tumor growth rate is depicted on the Y-axis in terms of tumor volume and is plotted as a function of time in weeks (X-axis). Open circles depict the tumor volume of untreated U373 xenografts expressing rabbit CE. Filled triangles depict the response of control xenografts (no rabbit CE) treated with CPT-11. Filled squares depict the response of cells expressing rabbit CE and treated with CPT-11. […] Each point represents the mean of 14 tumors in 7 individual mice.
Similar studies were performed employing U373 glioblastoma cells transfected with the pIRESneo plasmid or with pIRESneo containing the cDNA for rabbit liver CE and selected with G418. Expression of CE in the tumor cells was confirmed by biochemical assay using the substrate o-NPA. Cells were injected subcutaneously into the flanks of the SCID mice.

Data set [8] has as its system pig liver CE. Nature of the data set: Metabolism of CPT-11 by commercially available pig liver CE, rapid fluorometric assay. Format: biochemical. To be noted: partially purified commercial pig liver CE. The source says:
(§2) The commercially available pig CE contained several proteins. […] Therefore, the rabbit proteins were chosen for further study.

Data set [9] has as its system Rh30 rhabdosarcoma xenografts. Nature of the data set: Rh30 and Rh30pIRESrabbit xenografts in SCID mice treated with CPT-11. To be noted: for tumor response: 2.5 mg CPT-11/kg/day, three cycles. Format: in vivo. On the procedure:
The tumor growth rate is depicted on the Y-axis of each graph in terms of tumor volume and is plotted as a function of time in weeks (X-axis).
In this preclinical model, expression of the transfected cDNA for rabbit CE was maintained for at least 12 weeks.
Experiments were performed in this model to compare the responses of mice bearing human Rh30 and Rh30pIRESrabbit xenografts. Rh30 rhabdosarcoma xenografts were transfected with pIRESneo plasmid containing the cDNA for rabbit liver CE and selected with G418. Expression of CE was confirmed by biochemical assay using the CE substrate o-NPA and maintained for at least 12 weeks. Two groups of SCID mice were then injected with the transfected Rh30pIRESrabbit cells subcutaneously into the flanks. A third group of control mice was injected in identical fashion with Rh30 cells not transfected with the plasmid.

For data set [10] the following is noted: patients; cited from earlier work.
For data set [11], the target named is T1, rabbit liver CE. Nature of the data set: Metabolism of CPT-11 by commercially available rabbit liver CE, rapid fluorometric assay. Type of data set: biochemical. The conditions noted are these: partially purified commercial rabbit liver CE.
Description: as §2

Data set [12] relates to Rh18 RMS xenografts. To be noted: cited from earlier work.
For data set [13], the target named is T2, topoisomerase I (Homo sapiens, UniProt P11387).
T2 sequence (P11387 1-765): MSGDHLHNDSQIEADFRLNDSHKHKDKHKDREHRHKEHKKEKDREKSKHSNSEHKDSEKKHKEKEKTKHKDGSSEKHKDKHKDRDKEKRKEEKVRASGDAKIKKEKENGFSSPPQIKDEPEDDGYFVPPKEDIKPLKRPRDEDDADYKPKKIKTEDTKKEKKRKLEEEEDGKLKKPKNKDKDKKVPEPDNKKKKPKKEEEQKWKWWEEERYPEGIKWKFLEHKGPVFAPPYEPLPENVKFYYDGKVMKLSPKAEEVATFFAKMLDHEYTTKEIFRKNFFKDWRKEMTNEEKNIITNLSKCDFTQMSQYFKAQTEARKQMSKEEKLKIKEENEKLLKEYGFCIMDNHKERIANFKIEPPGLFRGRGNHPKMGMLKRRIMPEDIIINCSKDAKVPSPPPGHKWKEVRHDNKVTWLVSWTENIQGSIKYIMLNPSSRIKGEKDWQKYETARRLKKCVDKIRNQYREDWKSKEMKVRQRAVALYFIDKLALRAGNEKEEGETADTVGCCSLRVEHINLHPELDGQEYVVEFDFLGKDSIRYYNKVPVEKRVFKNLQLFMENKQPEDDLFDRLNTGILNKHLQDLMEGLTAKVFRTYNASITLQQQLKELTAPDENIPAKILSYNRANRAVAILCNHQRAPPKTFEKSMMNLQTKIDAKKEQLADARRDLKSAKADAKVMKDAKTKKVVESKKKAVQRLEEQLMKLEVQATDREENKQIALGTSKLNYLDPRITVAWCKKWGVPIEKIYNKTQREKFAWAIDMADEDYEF
To be noted: cited from earlier work.

The mark [14] stands for this setting: tumors not expressing CE (Rh30).

“Also recorded” adds a separate entry of the source. Where two headings read alike, the source gives them in different places.

On to `CCc1c2c(nc3ccc(OC(=O)N4CCC(NCCCCC(=O)O)CC4)cc13)-c1cc3c(c(=O)n1C2)COC(=O)[C@]3(O)CC` [APC], for which the “conversion of APC to SN-38” value in data set [1] was “converted to SN-38 in a concentration-dependent manner”. In addition, the results for the “sensitization to growth inhibitory effects of APC” value in data set [2] (U-373 cells expressing human alveolar macrophage CE) and in [2] (U-373 cells expressing rabbit liver CE) were “not” and “sensitized”, respectively.
For `CCc1c2c(nc3ccc(OC(=O)N4CCC(N5CCCCC5)CC4)cc13)-c1cc3c(c(=O)n1C2)COC(=O)[C@]3(O)CC` [CPT-11, 7-ethyl-10-[4-(1-piperidino)-1-piperidino]carbonyloxycamptothecin], in data set [3], the “inhibition of cell growth” value was “no inhibition of cell growth”. The “time until tumors are palpable again at the original site” value in data set [4] is 4–6 weeks. In addition, the tumor response result in [4] is “complete regression”; in data set [7] (xenografts from cells transfected with control plasmid (no rabbit CE)) it was “stable disease but no significant regression; also recorded: stable disease with no significant regression”; in data set [7] (xenografts from cells transfected with plasmid encoding rabbit CE) it was “tumor regression was seen only in treated cells expressing rabbit CE; also recorded: regressed completely”; in [9] (tumors expressing rabbit CE (Rh30pIRESrabbit), 5 days/week for 2 weeks, 12 weeks) it was “complete tumor regression; also recorded: regressed completely and did not regrow”; in data set [9] (setting [14]) it was “initial regression but regrowth; also recorded: regressed only transiently”; in data set [12] (10 mg/kg/day, same schedule) it was “only partial tumor regression”. In addition, the tumor response entry in [12] (20 mg of CPT-11/kg/day daily for 5 days for two weeks) is “complete regressions”. In addition, the “prodrug converted to active drug SN-38” value in [5] was “less than 5%”. Besides, the IC50 (usually the midpoint of a concentration-inhibition curve) is 4.33 µM in [6] (read-out: IC50 of CPT-11, Rh30pIRES cells (no CE cDNA)) and 0.576 µM in data set [6] (read-out: IC50 of CPT-11, Rh30pIRESrabbit cells (rabbit CE cDNA)). In addition, the “metabolism of CPT-11” value in data set [8] and in data set [11] was “metabolized CPT-11 efficiently” throughout. Further, the “time to regrowth after CPT-11 treatment stopped” value in [9] (setting [14]) is “within one week”. In [10], the dose-limiting toxicities entry was “myelosuppression and secretory diarrhea”.
In the case of `CCc1c2c(nc3ccc(O)cc13)-c1cc3c(c(=O)n1C2)COC(=O)[C@]3(O)CC` [SN-38, 7-ethyl-10-hydroxy-camptothecin], the “inhibition of topoisomerase I” value in data set [13] was “potent inhibitor”.
